Measured values taken from US8895746B2 (University of Central Florida Research Foundation, Inc., priority 2009, dated 2014).

Key:
His-tagged Stat3 = target: T1, His-tagged Stat3 (Mus musculus, UniProt P42227); assay: Surface Plasmon Resonance analysis of binding to immobilized His-tagged Stat3; design: species or system murine
T1 construct: Coding regions for the murine Stat3 protein; made in house; host or cells: E. coli BL21(DE3)
Description: (§1) Coding regions for the murine Stat3 protein and Stat3 SH2 domain were amplified by PCR and cloned into vectors pET-44 Ek/LIC (Novagen) and pET SUMO (Invitrogen), respectively.
Clones were sequenced to verify the correct sequences and orientation. His-tagged recombinant proteins were expressed in BL21(DE3) cells, and purified on Ni-ion sepharose column.
SensiQ and its analysis software Qdat (ICX Technologies, Oklahoma City, Okla.) were used to analyze the interaction between agents and the Stat3 protein and to determine the binding affinity. Purified Stat3 was immobilized on a HisCap Sensor Chip by injecting 50 µg/ml of Stat3 onto the chip. […] The association and dissociation rate constants were calculated using the Qdat software. The ratio of the association and dissociation rate constants was determined as the affinity (KD).
To provide definitive evidence of direct binding to Stat3, biophysical studies were performed. H1s-tagged Stat3 protein (or SH2 domain; 50 ng) was immobilized on a Ni-NTA sensor chip surface for Surface Plasmon Resonance analysis of the binding of 531201.1066 as the analyte. Association and dissociation measurements were taken and the binding affinity of S31-201.1066 for Stat3 was determined using Qdat software.

Stat3 SH2 domain = target: T2, Stat3 SH2 domain (Mus musculus, UniProt P42227); assay: EMSA of Stat3 DNA-binding with added purified His-tagged Stat3 SH2 domain; type: biochemical, murine; conditions: 1-500 ng His-SH2; full recovery at 125-500 ng
T2 construct: Purified histidine-tagged Stat3 SH2 domain (His-SH2) was added at increasing concentrations (1-500 ng); SUMO (vector pET SUMO); made in house; host or cells: E. coli BL21(DE3)
Description: as §1

[1] = target: T3, Stat3 association with EGFR (Homo sapiens, UniProt P40763); assay: Co-immunoprecipitation of EGFR immunecomplex from treated Panc-1 and MDA-MB-231 cells; type: cell-based
T3 construct: immunoprecipitated from whole-cell lysates prepared from treated and untreated cancer cells and blotted for Stat3; endogenous in cells; host or cells: Panc-1 and MDA-MB-231 cells
Experimental: Immunoprecipitation from whole-cell lysates and SDS/PAGE and Western blotting analysis were performed as previously described (33,38).
Cells were then subjected to immunostaining for EGFR (red) and Stat3 (green) and analyzed by confocal microscopy for EGF-induced colocalization of Stat3 and EGFR and for Stat3 nuclear translocation, as previously performed (17). In the resting NIH3T3/hEGFR fibroblasts, EGFR (red) is widely localized at the plasma membrane, while Stat3 (green) is localized at both the plasma membrane and in the cytoplasm, with a minimal colocalization with EGFR at the plasma membrane and no visible presence in the nucleus (stained blue for DAPI) (FIG. 4A upper panel).

[2] = test system: mouse thymus epithelial stromal cells (TE71); assay: CyQuant cell viability; type: cell-based
Description: (§2) Aberrant Stat3 promotes malignant cell proliferation, survival and malignant transformation (10, 20, 42). Given that S3I201.1066 disrupts Stat3 activation, we asked the question whether this agent is able to selectively decrease the viability and growth of malignant cells that harbor aberrant Stat3 activity.

[3] = test system: normal human pancreatic duct epithelial cells (HPDEC); assay: CyQuant cell viability; type: cell-based
Description: as §2

Stat5:Stat5 complex = assay: EMSA selectivity, nuclear extracts of EGF-stimulated NIH3T3/hEGFR, MGFe probe; type: biochemical, mouse; conditions: up to 300 μM
Experimental: Nuclear extract preparations and electrophoretic mobility shift assay (EMSA) were carried out as previously described (28,33). […] Except where indicated, nuclear extracts were pre-incubated with compound for 30 min at room temperature prior to incubation with the radiolabeled probe for 30 min at 30° C. before subjecting to EMSA analysis.

Stat3 = assay: Intracellular Stat3 activation: EMSA of nuclear extracts from treated NIH3T3/v-Src, Panc-1 and MDA-MB-231 cells; type: cell-based, mouse, human; conditions: 50 μM, 24 h, Panc-1, MDA-MB-231
Experimental: Nuclear extract preparations and electrophoretic mobility shift assay (EMSA) were carried out as previously described (28,33). The ^32P-labeled oligonucleotide probes used were hSIE (high affinity sis-inducible element from the c-fos gene, m67 variant, 5′[…]; SEQ ID NO:5) that binds Stat1 and Stat3 (34) and MGFe (mammary gland factor element from the bovine β-casein gene promoter, 5′-[…]; SEQ ID NO:6) for Stat1 and Stat5 binding (35,36). Except where indicated, nuclear extracts were pre-incubated with compound for 30 min at room temperature prior to incubation with the radiolabeled probe for 30 min at 30° C. before subjecting to EMSA analysis. Bands corresponding to DNA-binding activities were scanned and quantified for each concentration of compound using ImageQuant and plotted as percent of control (vehicle) against concentration of compound, from which the IC50 values were derived, as previously reported (37).
Stat3 is constitutively activated in a variety of malignant cells, including human breast and pancreatic cancer cells (9, 10, 20).
Twenty-four hours after treatment, nuclear extracts were prepared from cells and subjected to Stat3 DNA-binding assay in vitro using the radiolabeled hSIE probe and analyzed by EMSA.

NIH3T3/v-Ras = assay: Colony survival assay; type: cell-based, mouse
Experimental: This was performed as previously reported (39). […] Colonies were stained with crystal violet for 4 h and counted under phase-contrast microscope.
Cultured single-cells were untreated or treated once with S3I-201.1066 and allowed to grow until large colonies were visible, which were stained and enumerated.

[4] = test system: human breast cancer (MDA-MB-231) xenografts; conditions: mouse, in vivo
Description: Wounds were made using pipette tips in monolayer cultures of cells in six-well plates. […] The migration of cells was visualized at a 10× magnification using an Axiovert 200 Inverted Fluorescence Microscope (Zeiss, Göttingen Germany), with pictures taken using a mounted Canon Powershot A640 digital camera (Canon USA, Lake Success, N.Y.). Cells that migrated into the denuded area were quantified. Mice and in vivo tumor studies-Six-week-old female athymic nude mice were purchased from Harlan and maintained in the institutional animal facilities approved by the American Association for Accreditation of Laboratory Animal Care. Athymic nude mice were injected subcutaneously in the left flank area with 5×10^6 human breast cancer MDA-MB-231 cells in 100 μL of PBS. After 5 to 10 days, tumors of a diameter of 3 mm were established. […] Tumor volume was calculated according to the formula V=0.52×a^2×b, where a, smallest superficial diameter, b, largest superficial diameter.

T3 sequence (P40763 2-770 limits assumed): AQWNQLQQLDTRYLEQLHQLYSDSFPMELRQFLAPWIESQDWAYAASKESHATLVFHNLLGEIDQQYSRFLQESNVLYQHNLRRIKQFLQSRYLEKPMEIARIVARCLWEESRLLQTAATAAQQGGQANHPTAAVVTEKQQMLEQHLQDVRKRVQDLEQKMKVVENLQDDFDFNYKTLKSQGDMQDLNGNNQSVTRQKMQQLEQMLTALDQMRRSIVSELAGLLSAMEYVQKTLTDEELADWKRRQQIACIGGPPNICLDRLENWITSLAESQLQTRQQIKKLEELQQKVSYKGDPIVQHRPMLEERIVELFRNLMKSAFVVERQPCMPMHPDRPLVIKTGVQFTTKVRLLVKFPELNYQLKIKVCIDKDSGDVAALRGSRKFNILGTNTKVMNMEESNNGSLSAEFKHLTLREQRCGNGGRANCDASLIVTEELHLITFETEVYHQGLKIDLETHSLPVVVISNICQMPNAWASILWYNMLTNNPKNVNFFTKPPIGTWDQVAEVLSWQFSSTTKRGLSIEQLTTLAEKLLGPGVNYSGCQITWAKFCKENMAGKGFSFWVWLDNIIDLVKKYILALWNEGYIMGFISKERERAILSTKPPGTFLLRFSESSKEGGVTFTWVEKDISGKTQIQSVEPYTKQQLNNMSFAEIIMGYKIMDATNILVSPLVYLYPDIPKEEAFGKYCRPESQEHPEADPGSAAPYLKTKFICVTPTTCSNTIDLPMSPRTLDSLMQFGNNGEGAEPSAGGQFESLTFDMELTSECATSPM
T1 sequence (P42227 whole entry): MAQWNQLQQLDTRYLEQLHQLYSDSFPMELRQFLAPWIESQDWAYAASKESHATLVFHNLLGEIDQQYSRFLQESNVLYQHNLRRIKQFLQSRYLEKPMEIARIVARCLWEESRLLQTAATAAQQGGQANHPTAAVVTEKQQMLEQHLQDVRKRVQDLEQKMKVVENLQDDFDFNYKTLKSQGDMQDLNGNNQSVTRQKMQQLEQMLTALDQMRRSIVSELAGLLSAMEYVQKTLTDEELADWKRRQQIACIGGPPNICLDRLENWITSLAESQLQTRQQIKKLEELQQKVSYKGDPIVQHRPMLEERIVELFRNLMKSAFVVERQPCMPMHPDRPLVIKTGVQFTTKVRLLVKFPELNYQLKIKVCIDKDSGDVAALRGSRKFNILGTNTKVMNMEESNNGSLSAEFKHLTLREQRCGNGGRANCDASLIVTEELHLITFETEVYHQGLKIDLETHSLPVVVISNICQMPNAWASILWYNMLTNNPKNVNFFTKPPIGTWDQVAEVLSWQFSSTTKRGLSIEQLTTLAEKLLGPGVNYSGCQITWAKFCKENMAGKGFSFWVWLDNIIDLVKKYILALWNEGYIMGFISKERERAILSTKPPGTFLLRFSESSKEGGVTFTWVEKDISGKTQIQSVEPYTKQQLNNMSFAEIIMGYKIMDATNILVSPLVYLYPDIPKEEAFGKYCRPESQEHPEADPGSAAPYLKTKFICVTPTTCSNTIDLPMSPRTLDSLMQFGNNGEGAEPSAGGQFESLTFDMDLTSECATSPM
T2 sequence (P42227 580-670 limits assumed): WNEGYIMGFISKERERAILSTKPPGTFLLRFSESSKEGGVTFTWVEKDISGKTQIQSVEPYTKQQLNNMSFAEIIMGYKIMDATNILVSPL

Compound: Cc1ccc(S(=O)(=O)N(C)CC(=O)N(Cc2ccc(C3CCCCC3)cc2)c2ccc(C(=O)O)c(O)c2)cc1 [S3I-201.1066]
- Kd (His-tagged Stat3; affinity (KD) for Stat3 or the SH2 domain, SPR): 2300 nM
- Kd (His-tagged Stat3; binding affinity, Ko / KD for Stat3, SPR, immobilized His-Stat3): 2.74 nM
- inhibition of Stat3 DNA-binding activity in presence of increasing purified His-SH2 domain (Stat3 SH2 domain): progressively eliminated
- Shc or Grb 2 levels associated with EGFR in the complex [1]: without affecting
- level of Stat3 associated with EGFR in the immunecomplex [1]: significantly diminished
- levels of activated and total Erk1/2 in whole-cell lysates [1]: unaffected
- derived IC60 values, viability [2]: > 200 μMm
- derived IC60 values, viability [3]: > 200 μMm
- effect on Stat5:Stat5 complex with the MGFe probe (Stat5:Stat5 complex): no effect
- constitutive Stat3 activation in treated cells (Stat3): significant inhibition
- colony numbers, colony survival (NIH3T3/v-Ras): minimal effect
- toxicity in tumor-bearing mice [4]: no obvious sign of toxicity
